Source: patent US12065427B2, “Heterocyclic compounds capable of activating STING” (BOEHRINGER INGELHEIM INTERNATIONAL GMBH, priority 2021, dated 2024)
Values after ≈ are worked out from the molar mass of the structure shown.

How the values were obtained:
STING AQ-variant = molecular target: T1, STING AQ-variant (Homo sapiens, UniProt Q86WV6, G230A/H232R/R293Q); experiment: IRF-inducible SEAP reporter assay in THP1-Blue ISG cells, STING AQ-variant; type: cell-based; details: 24 hours incubation
T1 construct: expressed in transfected cells; host or cells: THP1-Blue ISG hSTING KO clone, retroviral MSCV-ires-GFP-Blasti
How it was run: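 THP1-Blue ISG cells with endogenous STING knocked out by CRISPR and re-expressing the human STING AQ variant; compounds in 8-point dilution, final DMSO 0.5%, 24 h at 37 °C. SEAP read after 30 min with Quanti-Blue as OD 620 nm; EC50 and Hill slope from four-parameter fits.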

in vitro = details: human, Caco-2, pH 7.4
Protocol: Cellular Permeability Measurements
(§1) Caco-2 cells were obtained from Leibniz Institute DSMZ-German Collection of Microorganisms and Cell Cultures (Braunschweig, Germany) and cultured in DMEM (Dulbecco's modified Eagle medium) containing (in final concentrations) 10% FCS (fetal calf serum), 1% NEAA (non-essential amino acids), 2 mM Glutamin, 100 U/mL Penicillin and 100 μg/mL Streptomycin. Caco-2 cells were seeded either onto 24-well Transwell inserts (Corning, #3379) for bidirectional permeability assays at a density of 160,000 cells/cm^2 and cultured for 3 weeks, with media change on every second day.
(§2) For bidirectional permeability assays 10 mM DMSO stock solutions were diluted in transport buffer (final concentrations: 128.13 mM NaCl, 5.36 mM KCl, 1 mM MgSO4, 1.8 mM CaCl2, 4.17 mM NaHCO3, 1.19 mM Na2HPO4, 0.41 mM NaH2PO4, 15 mM 2-[4-(2-hydroxyethyl)piperazin-1-yl]ethanesulfonic acid (HEPES), 20 mM glucose, pH 7.4) containing 0.25% bovine serum albumin to a final concentration of 10 μM of the test compounds and added to the apical or basal compartment. Cells were incubated with the compounds for up to 2 h. Samples from the opposite compartment were taken at different timepoints.
(§3) Compound concentrations in the compartments were quantified using a RapidFire-based high-throughput HPLC/MS/MS system (high performance liquid chromatography/mass spectrometry; Bio-Cius) that was customized to a fully automated and flexible platform, termed RIAS. In this modified setup, the sample was aspirated by a vacuum pump into a 10 μL sample loop for 250 ms and flushed onto a C4 cartridge (3.8 μL bed volume; Bio-Cius) with the aqueous mobile phase (99.9% water, 0.09% formic acid, and 0.01% TFA; flow rate 1.5 mL/min). Prior to bioanalysis samples were spiked with internal standard solution and diluted with acetonitrile (ACN) for protein precipitation. Measurement was operated in multiplereaction monitoring (MRM) mode. Quantification was performed using external calibration. A solid-phase extraction step retained the analyte for 3000 ms while interfering matrix (e.g., buffer components) was removed. With a simple step gradient, the analyte was back-eluted from the cartridge for 3,000 ms with the organic mobile phase (99.9% acetonitrile/methanol [1:1, v:v], 0.09% formic acid, and 0.01% TFA) and flushed into the mass spectrometer at a flow rate of 1.25 mL/min. Afterwards, the cartridge was re-equilibrated with the aqueous mobile phase for 500 ms (flow rate 1.5 mL/min).
(§4) Apparent permeability coefficients in the apical to basal direction (Papp,AB) and in the basal to apical direction (Papp,BA) and efflux ratios were calculated as follows: Papp,AB=QAB/(C0·s·t) Papp,BA=QBA/(C0·s·t) Efflux ratio=Papp,BA/Papp,AB
(§5) where Q is the amount of compound recovered in the receiver compartment after the incubation time t, C0 the initial compound concentration given to the donor compartment, and s the surface area of the Transwell inserts. […] In addition, transepithelial electrical resistance (TEER) values are measured for each plate before the permeability assay, and total recovery in donor and receiver compartments was determined for each compound.

[1] = Solubility measurements (HTS) at pH 6.8; type: physicochemical; details: kinetic from dmso stock; aqueous McIlvaine buffer pH 6.8, 24 h at room temperature, from 10 mM DMSO stock; read-out: Soblubility
Protocol: Aqueous solubilities were determined from 10 mM stock solutions of the compounds in DMSO diluted to a final concentration of 250 μM with aqueous McIlvaine buffer at pH 6.8, or with acetonitrile/water (1:1) as a reference. Samples were shaken for 24 h at room temperature in 96-well plates (Whatman Uniplate® 96 wells, 750 μL, polypropylene, round bottom). The plate was then centrifuged at 3,000 rpm for 2 min. 250 μL of each sample were transferred to a Millipore MultiScreenHTS filter plate with a polycarbonate membrane, pore size 0.45 μm. Filtrates were collected by centrifugation at 3,000 rpm for 2 min. The dissolved concentrations were determined by UPLC/UV (Ultra-Performance Liquid Chromatography/ultraviolet) on a Waters ACQUITY UPLC® SQD system equipped with a Waters ACQUITY UPLC® BEH 2.1×50 mm C18 column, particle size 1.7 μm, using a short gradient with water/0.1% formic acid as solvent A and acetonitrile/0.1% formic acid as solvent B (5 to 95% B with 1.7 min total cycle time). Compounds signals were measured with a photodiode array UV detector operated at 254 nm. Solubilities were determined with a one point calibration by comparing peak areas relative to the reference standard using Waters Empower software.

STING R232H-variant = molecular target: T2, STING R232H-variant (Homo sapiens, UniProt Q86WV6); experiment: IRF-inducible SEAP reporter assay in THP1-Blue ISG cells, STING R232H-variant; type: cell-based; details: 24 hours incubation
T2 construct: expressed in transfected cells; host or cells: THP1-Blue ISG hSTING KO clone, retroviral MSCV-ires-GFP-Blasti
How it was run: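 THP1-Blue ISG cells, endogenous STING knocked out by CRISPR and re-expressing hSTING R232H, with IRF-inducible SEAP reporter. Treated 24 h at 37 °C with 8-point compound dilutions (0.5% DMSO final); SEAP read by Quanti-Blue OD 620 nm after 30 min. EC50 from four-parameter fit.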

STING HAQ-variant = molecular target: T3, STING HAQ-variant (Homo sapiens, UniProt Q86WV6, G230A/H232R/R293Q/R71H); experiment: IRF-inducible SEAP reporter assay in THP1-Blue ISG cells, STING HAQ-variant; type: cell-based; details: STING HAQ-variant (parental or re-introduced), 24 hours incubation
T3 construct: parental THP1-Blue™ ISG cell lines (which express endogenously HAQ); host or cells: THP1-Blue ISG (parental, endogenous HAQ) or STING-KO clone re-transduced with HAQ (MSCV-ires-GFP-Blasti)
How it was run: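 THP1-Blue ISG cells expressing STING HAQ, either endogenously (parental) or re-introduced after CRISPR knockout, were seeded at 10000 cells/well. They received 8-point compound dilutions (0.5% DMSO final) for 24 hours at 37° C. IRF-driven SEAP was read with Quanti-Blue at OD 620 nm after 30 minutes, and EC50 came from four-parameter fits.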

STING H232R-variant = molecular target: T4, STING H232R-variant (Homo sapiens, UniProt Q86WV6, H232R); experiment: IRF-inducible SEAP reporter assay in THP1-Blue ISG cells, STING H232R-variant; type: cell-based; details: STING H232R-variant (WT), 24 hours incubation
T4 construct: expressed in transfected cells; host or cells: THP1-Blue ISG hSTING KO clone, retroviral MSCV-ires-GFP-Blasti
How it was run: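 THP1-Blue ISG cells with endogenous STING deleted by CRISPR and retrovirally re-expressing human STING H232R; 8-point compound dilutions, 0.5% DMSO final, 24 h at 37 °C. SEAP read by Quanti-Blue, 30 min, OD 620 nm; EC50 and Hill slope from four-parameter fit.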

[2] = tested on: Human STING (hSTING, residues 155-341); experiment: Interaction with hSTING as determined by Differential Scanning Fluorimetry (DSF); type: binding; details: 100 μM test compounds, 5 μM target protein
How it was run: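 Thermal shift of hSTING (residues 155-341, 5 μM) with test compounds at 100 μM in 20 mM Tris, 150 mM NaCl, pH 7.5, using 5× SYPRO Orange. Ramped 25 to 95 °C at 0.5 °C per cycle (15 s/cycle) by real-time PCR fluorescence. Tm from duplicate melting curves, averaged.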

STING R293Q-variant = molecular target: T5, STING R293Q-variant (Homo sapiens, UniProt Q86WV6, H232R/R293Q); experiment: IRF-inducible SEAP reporter assay in THP1-Blue ISG cells, STING R293Q-variant; type: cell-based; details: 24 hours incubation
T5 construct: expressed in transfected cells; host or cells: THP1-Blue ISG hSTING KO clone, retroviral MSCV-ires-GFP-Blasti
How it was run: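 THP1-Blue ISG cells with endogenous STING knocked out (CRISPR) and retrovirally re-expressing human STING R293Q; 10000 cells/well, compound 24 h at 37 °C, 0.5% DMSO final. SEAP read by Quanti-Blue (30 min, OD 620 nm); EC50 and Hill slope from 8-point four-parameter fit.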

[3] = Cellular permeability measurements, bidirectional Caco-2 assay; details: human, Caco-2, pH 7.4
Protocol: Cellular Permeability Measurements
as §1, §2, §3, §4, §5

T4 sequence (Q86WV6 whole entry H232R): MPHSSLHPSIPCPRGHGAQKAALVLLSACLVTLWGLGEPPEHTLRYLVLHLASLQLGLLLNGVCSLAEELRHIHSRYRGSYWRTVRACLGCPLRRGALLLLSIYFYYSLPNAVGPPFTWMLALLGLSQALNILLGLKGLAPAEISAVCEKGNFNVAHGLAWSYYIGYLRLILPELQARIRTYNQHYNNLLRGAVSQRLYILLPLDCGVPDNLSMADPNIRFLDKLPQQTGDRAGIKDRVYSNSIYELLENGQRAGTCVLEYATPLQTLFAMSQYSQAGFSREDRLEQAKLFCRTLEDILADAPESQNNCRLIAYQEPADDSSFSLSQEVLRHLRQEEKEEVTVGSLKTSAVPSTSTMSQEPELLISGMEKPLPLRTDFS
T2 sequence (Q86WV6 whole entry, stated change not applied): as the sequence (Q86WV6 whole entry H232R) above, with R232H counted along it
T1 sequence (Q86WV6 whole entry G230A/H232R/R293Q): as the sequence (Q86WV6 whole entry H232R) above, with G230A, R293Q counted along it
T3 sequence (Q86WV6 whole entry R71H/G230A/H232R/R293Q): as the sequence (Q86WV6 whole entry H232R) above, with R71H, G230A, R293Q counted along it
T5 sequence (Q86WV6 whole entry H232R/R293Q): as the sequence (Q86WV6 whole entry H232R) above, with R293Q counted along it

EC50 (STING AQ-variant) [µM]	Papp A→B at 10 μM (in vitro) [×10⁻⁶ cm/s]	efflux ratio at 10 μM (in vitro)	solubility kinetic at 24 h [1] [µg/mL]	EC50 (STING R232H-variant) [µM]	EC50 (STING HAQ-variant) [µM]	EC50 (STING H232R-variant) [µM]	EC50 (STING R293Q-variant) [µM]	Compound	thermal shift (ΔTm) [2] [K]	efflux ratio at 10 μM [3]
0.3	15	1.2	80 (≈ 171 µM)	0.2	0.7	0.2	0.6	Cc1cccc2c(-c3cccc4nn(C)cc34)nn(-c3ccc(N4CCC(C(=O)O)CC4)nc3)c12 [Example #57, 1-(5-(2′,7-dimethyl-1H,2′H-[3,4′-biindazol]-1-yl)pyridin-2-yl)piperidine-4-carboxylic acid]	17	–
0.1	11	2.5	66 (≈ 142 µM)	0.1	0.2	0.1	0.2	Cc1cccc2c(-c3cccc4nn(C)cc34)nn(-c3ccc(N4CC5C(C4)C5C(=O)O)nc3)c12 (stereo not drawn) [Example #59, 3-(5-{2′,7-dimethyl-1H,2′H-[3,4′-biindazol]-1-yl}pyridin-2-yl)-3-azabicy-clo[3.1.0]hexane-6-car-boxylic acid]	21	–
2.3	16	1.2	82 (≈ 158 µM)	0.8	2.2	0.7	2.1	Cn1cc2c(-c3nn(-c4ccc(N5CCC(C(=O)O)CC5)nc4)c4c(C(F)(F)F)cccc34)cccc2n1 [Example #67, 1-{5-[2′-methyl-7-(trifluo-romethyl)-1H,2′H-[3,4′-biindazol]-1-yl]pyridin-2-yl}piperidine-4-carboxylic acid]	23	–

Compound	EC50 (STING AQ-variant) [µM]	Papp A→B at 10 μM (in vitro) [×10⁻⁶ cm/s]	efflux ratio at 10 μM (in vitro)	solubility kinetic at 24 h [1] [µg/mL]	EC50 (STING R232H-variant) [µM]	EC50 (STING HAQ-variant) [µM]	EC50 (STING H232R-variant) [µM]	EC50 (STING R293Q-variant) [µM]	thermal shift (ΔTm) [2] [K]	efflux ratio at 10 μM [3]
Cc1cccc2c(-c3cccc4nn(C)cc34)nn(-c3ccc(N4CC5(COC5)C4)nc3)c12 [compound 3, 2′,7-dimethyl-1-(6-{2-oxa-6-azaspiro[3.3]heptan-6-yl}pyridin-3-yl)-1H,2′H-3,4′-biindazole]	–	–	–	–	–	3	–	–	20	0.6
